The target in this assay is SARS-CoV-2 3CL^pro (Severe acute respiratory syndrome coronavirus 2, UniProt P0DTD1). Type of assay: biochemical.

Structures are written as SMILES.

Regarding `O=C(Cc1cccnc1)N(Cc1cccc(Cl)c1)c1ccc(-c2cn[nH]c2)cc1` [Compound 42, N-[(3-Chlorophenyl)methyl]-N-[4-(1H-pyrazol-4-yl)phenyl]-2-(3-pyridyl)acetamide], the primary biochemical potency entry is reported as “micromolar levels”.
For `O=C(Cc1cncnc1)N(Cc1cccc(Cl)c1)c1ccc(-c2cn[nH]c2)cc1` [Compound 43, N-[(3-Chlorophenyl)methyl]-N-[4-(1H-pyrazol-4-yl)phenyl]-2-pyrimidin-5-yl-acetamide] the value was “micromolar levels”.
